Results on five molecules are retold here after US5824700A, “Ortho-quinone derivatives novel synthesis therefor and their use in the inhibition of neoplastic cell growth” (Wisconsin Alumni Research Foundation, priority 1996, dated 1998).

Experiment [1] concerns BE. The experiment can be described thus: Colony formation / cell survival assay, BE colon cancer cells. Type of experiment: cell-based, human. The note with it: for effect on ability of BE cells to reproduce / IC50: FIG. 2; for effect on ability of BE cells to reproduce: β-lapachone at approximately 10 μM; for viability at 2 µM / viability at 10 µM / viability at 20 µM / viability at 100 µM / IC50: Homo sapiens; for viability at 2 µM / viability at 10 µM / viability at 20 µM / viability at 100 µM: 4 h, read-out: Fraction of Cell Survival; for IC50: BE, 4 h exposure, read-out: ED50 (the source's name). On the procedure:
(§1) The control flasks are treated with DMSO only. […] The remaining flasks are left untouched.
(§2) The cells are monitored for colony formation. […] The plating efficiency for each dish is then calculated.
(§3) The cell lines HT29 and BE are both human colon cancer cell lines which are used to test the effectiveness of a given agent against cancer cell growth and proliferation. […] The HT29 and BE cell cultures were prepared and tested according to the protocol given above.

Experiment [2] deals with MCF7. The experiment can be described thus: Colony formation / cell survival assay, MCF7 breast cancer cells. The note with it: Homo sapiens, MCF7, 4 h.
Protocol: 10 standard culture flasks for each drug to be tested are plated with 5×10^5 cells in 5 mL of media and allowed to incubate for 16-24 hours at 37° C.
Fresh stocks of the compounds to be evaluated are prepared in sterile DMSO. For each drug, two of the ten culture flasks prepared on Day 1 are used as controls. The control flasks are treated with DMSO only. […] The remaining flasks are left untouched. The cells are incubated for 4 hours at 37° C.
After 4 hours the control flasks are counted (2 counts for each flask) and the cells per mL calculated based on the average of the control counts. The cells are then replated into six 60 mm dishes for each flask from dilutions based on the cells/mL of the control. (In the various test runs, cell concentrations ranged from approximately 50 to approximately 800 cells per mL.) Day 15-20:
The cells are monitored for colony formation. […] The plating efficiency for each dish is then calculated. The plating efficiencies of the six dishes for each flask are averaged and the standard deviation is calculated. The fraction of cell survival at each concentration is determined based on the controls and plotted as log fraction of cell survival±standard deviation versus the dose of the compound.
In the same fashion as the above tests, several lapachone and dunnione derivatives were evaluated for their efficacy in inhibiting the proliferation of breast cancer cells. In this instance, the cancer cell line utilized was MCF7.
Experiment [3] has as its system HT29. The experiment can be described thus: Colony formation / cell survival assay, HT29 colon cancer cells. The note with it: for effect on ability of HT29 cells to reproduce / IC50: FIG. 1; for effect on ability of HT29 cells to reproduce: β-lapachone at approximately 10 μM; for IC50: HT-29, HT29, 4 h exposure, read-out: ED50 (the source's name). Type of experiment: cell-based, human. On the procedure:
as §1, §2, §3

Experiment [4] concerns A549. The experiment can be described thus: Colony formation / cell survival assay, A549 lung cancer cells. Type of experiment: cell-based. The note with it: Homo sapiens, A549, 4 h; for IC50: A549, 4 h exposure, read-out: ED50 (the source's name). On the procedure:
as §1, §2
The compounds tested were β-lapachone, 3-hydroxy-β-lapachone, 3,3-DINOR-dunnione (designated "Drug A" in the figures), 3-NOR-dunnione (designated "Drug B" in the figures) and dunnione itself (designated "Drug C" in the figures). A legend for the figures is provided below. The cell lines were cultured and the compounds evaluated according to the standard protocol described above.

The test system of experiment [5] is human breast cancer cell line MCF7. The experiment can be described thus: IC50 determination (DNA amount and anchorage-dependent colony formation), breast cancer MCF7. The format is cell-based. To be noted: MCF7, 24 hours exposure. Here is the method: (§4) Table 15 lists the IC50 determinations of Drugs B, C, and D against the human prostate cancer cell line PC-3 and the human breast cancer cell line MCF7. IC50 calculations for each cell line were determined by DNA amount and anchorage-dependent colony formation (CF) as described elsewhere. (See Planchon et al. Cancer Res. 55, 3706 (1995), incorporated herein by reference.) In short, IC50 calculations for each cell line were determined by DNA amount and anchorage-dependent colony formation (CF) assays. For the CF assay, cells were seeded at 500 viable cells/well in 6-well plates and incubated overnight, then treated with equal volumes of media containing β-lapachone at final concentrations ranging from 0.005 to 50 μM in half-log increments (controls were treated with 0.25% DMSO, equivalent to the highest dose of β-lapachone used) for 4 hours or for continuous 12 hour exposures. Plates (3 wells/condition) were stained with crystal violet, and colonies of >50 normal-appearing cells were enumerated. IC50 values for various cells were calculated using drug doses with numbers of colonies surrounding 50% of control. For DNA assays, plates were harvested for IC50 determinations 8 days after treatment using a CytoFluor 2350 fluorescence measurement system (Millipore). Six-well samplings were included in the calculation of DNA fluor units for each dose. A graph of β-lapachone dose versus percentage control DNA in fluor units was used to calculate each IC50. The cells were exposed for 24 hours to the tricyclic naphthoquinones. All experiments were repeated at least twice, each in duplicate. PC-3 is an androgen-independent prostate cancer cell line.

In experiment [6] the test system is human prostate cancer cell line PC-3. The experiment can be described thus: IC50 determination (DNA amount and anchorage-dependent colony formation), prostate cancer PC-3. The format is cell-based. To be noted: PC-3, 24 hours exposure. Here is the method:
as §4

Experiment [7] deals with Topoisomerase II. The experiment is described as follows: Topoisomerase II-mediated DNA cleavage (electrophoresis). The format is biochemical, mammalian. The note with it: gels of FIGS. 9A and 9B. Here is the method:
Analogous experiments to assay the ability of several of the compounds described herein to induce Topoisomerase II (Topo II)-mediated DNA cleavage were also performed. The results of one such experiment are depicted in the electrophoretegram of FIGS. 9A and 9B. Here, DNA was incubated in the presence of Topo II and several different compounds described herein.
A legend for the compounds which were tested in FIGS. 9A and 9B is as follows: [drawing 25] Lane 1: R=H (β-lapachone) Lane 2: R=OH
In the far left-hand lane of […], DNA alone is shown. Moving to the right, the next lane contains DNA and Topo II (mammalian). Lanes 1-9 of FIGS. 9A and 9B contain a series of concentrations of drugs (see Legend, above) in the presence of DNA and Topo II. Each set of lanes for each drug spans 3 orders of magnitude in concentration (0.1, 1, 10, and 100 μM). […] However, Lanes 1-9, which contain DNA, Topo II, and a drug according to the present invention, show extensive DNA cleavage.

Setting [8] is: read-out: ED50, MCF7, 4 h exposure, FIG. 6.
Where [9] appears, read: read-out: Fraction of Cell Survival.
The mark [10] stands for this setting: Homo sapiens, HT-29, 4 h, read-out: Fraction of Cell Survival.
[11] abbreviates: read-out: ED50, MCF7, 4 h exposure, FIG. 7.
Setting [12] is: read-out: Fraction of Cell Survival, MCF7, FIG. 7, 1 μM, 4 h.
Setting [13] is: read-out: Fraction of Cell Survival, MCF7, FIG. 7, 5 μM, 4 h.
The mark [14] stands for this setting: read-out: Fraction of Cell Survival, MCF7, FIG. 7, 10 μM, 4 h.
The mark [15] stands for this setting: read-out: Fraction of Cell Survival, MCF7, FIG. 7, 50 μM, 4 h.
The mark [16] stands for this setting: read-out: Fraction of Cell Survival, A549, FIG. 4, 1 μM, 4 h.
[17] abbreviates: read-out: Fraction of Cell Survival, A549, FIG. 4, 5 μM, 4 h.
[18] abbreviates: read-out: Fraction of Cell Survival, A549, FIG. 4, 10 μM, 4 h.
The mark [19] stands for this setting: read-out: Fraction of Cell Survival, A549, FIG. 4, 50 μM, 4 h.

Where two headings read alike, the source gives them in different places.

Take `CC1(C)OC2=C(CC1O)C(=O)C(=O)c1ccccc12` (stereo not drawn) [3-hydroxy-β-lapachone]: in experiment [1], the “effect on ability of BE cells to reproduce” value was “significantly limits the reproductive ability of these cancer cell lines”, the viability at 2 µM came to 92.9%, the viability at 10 µM turned out to be 39.2% and the viability at 20 µM was 1.02%. Moreover, in experiment [1], the viability at 100 µM came out at 0% and the IC50 was 0.6 µM. Also, the IC50 in experiment [2] (setting [8]) was 7.7 µM. Moreover, in experiment [2] (setting [9]), the viability at 1 µM is 106%, the viability at 5 µM was 68%, the viability at 10 µM was 0% and the viability at 50 µM came out at 0.32%. The “effect on ability of HT29 cells to reproduce” value in experiment [3] was “significantly limits the reproductive ability of these cancer cell lines”. In experiment [3] (setting [10]), the viability at 2 µM was 152%, the viability at 10 µM was found to be 119%, the viability at 20 µM came out at 2.32% and the viability at 100 µM is 0%. Besides, the IC50 in experiment [3] (Homo sapiens) worked out at 15.4 µM. For the same molecule, in experiment [4] (FIG. 3), the IC50 was 18 µM. Further, in experiment [4] (setting [9]), the viability at 1 µM turned out to be 304%, the viability at 5 µM was 239%, the viability at 10 µM came out at 153% and the viability at 50 µM turned out to be 0%.

`CC1CC2=C(O1)c1ccccc1C(=O)C2=O` (stereo not shown) [Drug A]: the IC50 is 1.6 µM in experiment [2] (setting [11]) and 6 µM in experiment [4] (FIG. 4). The viability at 1 µM in experiment [2] (setting [12]) was found to be 85.4%; in experiment [4] (setting [16]), 111%. Moreover, the viability at 5 µM in experiment [2] (setting [13]) worked out at 0.36%; in experiment [4] (setting [17]), 121%. Besides, the values for the viability at 10 µM in experiment [2] (setting [14]) and in experiment [4] (setting [18]) were 0.18% and 1.72%, respectively. The viability at 50 µM in experiment [2] (setting [15]) came to 0.18%; in experiment [4] (setting [19]), 0.23%.

Consider `CC1OC2=C(C(=O)C(=O)c3ccccc32)C1C` (stereo not shown) [Drug B, 2,3-dimethyl-2,3,4,5-dihydro-naphtho (2,3-b)dihydrofuran-6,7-dione], for which the IC50 in experiment [5] was 0.5 µM; in experiment [6] it was 0.7 µM; in experiment [2] (read-out: ED50, MCF7, 4 h exposure, FIG. 8), 1.4 µM; in experiment [4] (FIG. 5) it was 5.6 µM. Moreover, the viability at 1 µM in experiment [2] (read-out: Fraction of Cell Survival, MCF7, FIG. 8, 1 μM, 4 h) came out at 8.88%; in experiment [4] (read-out: Fraction of Cell Survival, A549, FIG. 5, 1 μM, 4 h), 89.7%. Also, the viability at 5 µM in experiment [2] (read-out: Fraction of Cell Survival, MCF7, FIG. 8, 5 μM, 4 h) is 0.32%; in experiment [4] (read-out: Fraction of Cell Survival, A549, FIG. 5, 5 μM, 4 h) it was 81.9%. In addition, the viability at 10 µM came out at 0.16% in experiment [2] (read-out: Fraction of Cell Survival, MCF7, FIG. 8, 10 μM, 4 h) and 0.24% in experiment [4] (read-out: Fraction of Cell Survival, A549, FIG. 5, 10 μM, 4 h). The viability at 50 µM worked out at 1.54% in experiment [2] (read-out: Fraction of Cell Survival, MCF7, FIG. 8, 50 μM, 4 h) and 0% in experiment [4] (read-out: Fraction of Cell Survival, A549, FIG. 5, 50 μM, 4 h).

For the molecule `Cc1cc2c(o1)-c1ccccc1C(=O)C2=O` [Drug D], the IC50 in experiment [5] was determined as 0.7 µM; in experiment [6] it was 0.9 µM.

As to `CC1(C)CCC2=C(O1)c1ccccc1C(=O)C2=O` [β-lapachone, 7,8-dihydro-2,2-dimethyl-2H-naphtho(2,3-b)dihydropyran-7,8-dione, reference compound], the “effect on ability of BE cells to reproduce” value in experiment [1] is “significantly impacts upon the ability of the HT29 and BE cells to reproduce”. Moreover, in experiment [1], the viability at 2 µM was found to be 1.17%. The viability at 10 µM is 15.8% in experiment [1]; 0% in experiment [2] (read-out: Fraction of Cell Survival, MCF7, FIG. 6, 10 μM, 4 h); 0.18% in experiment [2] (setting [14]); 0% in experiment [3] (setting [10]); 0% in experiment [4] (read-out: Fraction of Cell Survival, A549, FIG. 3, 10 μM, 4 h); 0.69% in experiment [4] (setting [18]). For the same molecule, in experiment [1], the viability at 20 µM was 4.39%. The viability at 100 µM in experiment [1] stood at 0%. The IC50 in experiment [1] was determined as 8 µM; in experiment [2] (setting [8]), 9.8 µM; in experiment [2] (setting [11]), 1.6 µM; in experiment [3] (Homo sapiens), 4.8 µM; in experiment [4] (FIG. 3), 6.1 µM; in experiment [4] (FIG. 4), 5.8 µM. In addition, the viability at 1 µM in experiment [2] (read-out: Fraction of Cell Survival, MCF7, FIG. 6, 1 μM, 4 h) amounted to 150%; in experiment [2] (setting [12]), 92%; in experiment [3] (setting [10]) it was 96.7%; in experiment [4] (read-out: Fraction of Cell Survival, A549, FIG. 3, 1 μM, 4 h), 265%; in experiment [4] (setting [16]) it was 85.5%. Also, the viability at 5 µM in experiment [2] (read-out: Fraction of Cell Survival, MCF7, FIG. 6, 5 μM, 4 h) stood at 0%; in experiment [2] (setting [13]), 0.36%; in experiment [3] (setting [10]), 49%; in experiment [4] (read-out: Fraction of Cell Survival, A549, FIG. 3, 5 μM, 4 h) it was 158%; in experiment [4] (setting [17]), 89.7%. The viability at 50 µM in experiment [2] (read-out: Fraction of Cell Survival, MCF7, FIG. 6, 50 μM, 4 h) was 0.32%; in experiment [2] (setting [15]), 0.09%; in experiment [3] (setting [10]), 0%; in experiment [4] (read-out: Fraction of Cell Survival, A549, FIG. 3, 50 μM, 4 h), 17.7%; in experiment [4] (setting [19]), 0%. In addition, the “effect on ability of HT29 cells to reproduce” value in experiment [3] is “significantly impacts upon the ability of the HT29 and BE cells to reproduce”. The “intracellular target (in words)” value in experiment [7] is given as “Topo II is an intracellular target”.
